Some test systems named below: SK-MEL-28 melanoma; HT29 colon; HCT-116 colon; SNB-75 CNS; U251 CNS; UO-31 renal; KM12 colon; HOP-92 NSCLC; NCI-H226 lung.
Common to all, as to experiment: inhibition of tumour cell growth, NCI panel, 48 h

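Step 1: Grow cells in 96-well plates. Step 2: Expose to compound for 48 hours at 5 concentrations. Step 3: Interpolate endpoints linearly; if unreached, use highest concentration. The concentration for 50% growth inhibition is given as GI50. TGI denotes the concentration required for complete inhibition of growth.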

As to `Nc1ccc2n[se]nc2c1`, the TGI in the test with SK-MEL-28 melanoma, in the test on HT29 colon, in the test with HCT-116 colon, with SNB-75 CNS, with U251 CNS and with UO-31 renal was more than 100 µM throughout. Besides, the TGI with KM12 colon is more than 100 µM.

As to `COC(=O)CCSC(=O)Nc1ccc(N=Nc2ccccc2)cc1`, the TGI in the test with SK-MEL-28 melanoma, with HT29 colon, in the test on HCT-116 colon, in the test with SNB-75 CNS, in the test with HOP-92 NSCLC and with U251 CNS was more than 100 µM throughout. Also, the TGI in the test with NCI-H226 lung, with UO-31 renal and in the test on KM12 colon was more than 100 µM each time.

As to `NC(=O)c1ccc2c(c1)-c1nc-2nc2[n-]c(nc3nc(nc4[n-]c(n1)c1ccc(C(N)=O)cc41)-c1ccc(C(N)=O)cc1-3)c1ccc(C(N)=O)cc21.[Co+2]`, the GI50 with SK-MEL-28 melanoma, in the test on HT29 colon, with HCT-116 colon, with SNB-75 CNS, with HOP-92 NSCLC and in the test on U251 CNS was more than 50 µM in each case. Further, the GI50 with NCI-H226 lung and in the test on KM12 colon was more than 50 µM throughout. Moreover, the TGI in the test with SK-MEL-28 melanoma, in the test on HT29 colon, with HCT-116 colon, in the test with SNB-75 CNS, with HOP-92 NSCLC and in the test with U251 CNS was more than 50 µM each time. Besides, the TGI in the test on NCI-H226 lung and in the test on KM12 colon was more than 50 µM throughout.

As to `COC(=O)C(=O)Cc1nc2ccccc2s1`, the TGI in the test with SK-MEL-28 melanoma, with HT29 colon, in the test with HCT-116 colon, in the test with SNB-75 CNS, with HOP-92 NSCLC and in the test with U251 CNS was more than 100 µM each time. Moreover, the TGI with NCI-H226 lung and in the test on UO-31 renal was more than 100 µM each time.

As for `NC1NC=NC2C1N=CN2C1OC(CO)C2[O][Sn][O]C21` (stereo unspecified), the GI50 in the test with SK-MEL-28 melanoma was more than 100 µM; in the test on HT29 colon, more than 100 µM; with HCT-116 colon it was more than 100 µM; in the test with SNB-75 CNS it was more than 100 µM; in the test on HOP-92 NSCLC, 27.5 µM; in the test with U251 CNS it was more than 100 µM. In addition, the GI50 in the test on NCI-H226 lung, with UO-31 renal and in the test on KM12 colon was more than 100 µM in each case. The TGI in the test on SK-MEL-28 melanoma, with HT29 colon, in the test with HCT-116 colon, in the test with SNB-75 CNS, in the test with HOP-92 NSCLC and in the test with U251 CNS was more than 100 µM throughout. The TGI in the test on NCI-H226 lung, in the test with UO-31 renal and in the test with KM12 colon was more than 100 µM in each case.

For `COc1ccc2c(c1)OC(N)=C(C#N)C2c1cc(OC)c(OC)c(OC)c1` (stereo unspecified), the GI50 with SK-MEL-28 melanoma is 0.0781 µM; with HT29 colon, 0.0328 µM; in the test with HCT-116 colon it was 0.0331 µM; in the test with SNB-75 CNS, 0.0394 µM; in the test with HOP-92 NSCLC, 0.169 µM; with U251 CNS it was 0.0329 µM. Also, the GI50 is 0.0573 µM in the test on NCI-H226 lung and 0.433 µM with UO-31 renal. The TGI in the test with SK-MEL-28 melanoma was more than 100 µM; with HT29 colon, 0.172 µM; with HCT-116 colon it was more than 37.5 µM; in the test with SNB-75 CNS it was 45.9 µM; in the test on HOP-92 NSCLC, more than 100 µM; in the test with U251 CNS it was 1.48 µM. In addition, the TGI in the test on NCI-H226 lung and in the test with UO-31 renal was more than 100 µM in each case.

Take `CCOC(=O)C(C)(NC(=O)c1ccc(NCc2ccc3nc(NC(=O)c4ccccc4)nc(NC(=O)c4ccccc4)c3c2)cc1)C(=O)OCC`: the TGI in the test with SK-MEL-28 melanoma turned out to be 27.6 µM; with HT29 colon it was 39.1 µM; in the test with HCT-116 colon, 24 µM; in the test on SNB-75 CNS, 7 µM; with HOP-92 NSCLC, 18.9 µM; in the test on U251 CNS, 21 µM. For the same compound, the TGI in the test with NCI-H226 lung turned out to be 28.4 µM; in the test with UO-31 renal it was 34.9 µM.

For `COc1cc[c]([Sn]([c]2ccc(OC)cc2)([c]2ccc(OC)cc2)[c]2ccc(OC)cc2)cc1`, the GI50 was 20.3 µM with HT29 colon; 8.92 µM with HCT-116 colon; 24 µM in the test on SNB-75 CNS; 4.2 µM with HOP-92 NSCLC; 20.8 µM in the test on U251 CNS; 14.1 µM in the test with UO-31 renal. Further, the TGI is more than 100 µM with HT29 colon; more than 100 µM in the test on SNB-75 CNS; 22.8 µM with HOP-92 NSCLC; 72.2 µM in the test with U251 CNS; 38 µM in the test with UO-31 renal.

For `CC(C)(C)c1cc(C(=O)Nc2ccccc2C(=O)NCCN)cc(C(C)(C)C)c1`, the GI50 in the test on SK-MEL-28 melanoma is 1.91 µM; with HT29 colon, 1.84 µM; in the test on HCT-116 colon, 1.8 µM; in the test on SNB-75 CNS, 1.68 µM; in the test on U251 CNS it was 1.89 µM; in the test on NCI-H226 lung, 1.96 µM. The GI50 in the test with UO-31 renal is 1.67 µM; in the test with KM12 colon, 1.79 µM. The TGI in the test on SK-MEL-28 melanoma was found to be 3.64 µM; in the test on HT29 colon, 3.59 µM; with HCT-116 colon it was 3.25 µM; with SNB-75 CNS it was 5.08 µM; in the test on U251 CNS, 3.42 µM; in the test with NCI-H226 lung, 3.74 µM. Further, the TGI was 3.17 µM with UO-31 renal and 3.4 µM in the test with KM12 colon.

Take `O=[N+]([O-])c1ccc(C2=Nc3ccccc3S(=O)C(c3ccccc3)C2)cc1` (stereo unspecified): the TGI in the test with SK-MEL-28 melanoma was 48.1 µM; with HT29 colon it was 42 µM; with SNB-75 CNS, 53.3 µM; in the test on NCI-H226 lung, 49.4 µM; with UO-31 renal it was 32.2 µM; in the test on KM12 colon, 41.3 µM.

With `COc1cc([N+](=O)[O-])c(OC)cc1-c1nc2sc(C)c(C)n2c1/C(N)=N/C(=N)N`, the GI50 in the test on SK-MEL-28 melanoma is more than 100 µM; in the test on HT29 colon, more than 100 µM; with HCT-116 colon it was more than 100 µM; with SNB-75 CNS, more than 100 µM; in the test with HOP-92 NSCLC it was 51.6 µM; in the test on U251 CNS, 2.29 µM. Further, the GI50 with UO-31 renal and in the test on KM12 colon was more than 100 µM in each case. Further, the TGI with SK-MEL-28 melanoma, with HT29 colon, with HCT-116 colon, in the test with SNB-75 CNS, in the test on HOP-92 NSCLC and in the test with U251 CNS was more than 100 µM in each case. The TGI with UO-31 renal and in the test on KM12 colon was more than 100 µM in each case.

These data come from PubChem BioAssay (NCI).
